In article PMC9485985 (Journal of Innate Immunity, 2021):
Peptide text beside a SMILES is read from it.

Key:
RAW264.7 cells = test: Uptake of TAMRA-labeled TCPs, flow cytometry; format: cell-based, murine; details: Fig. 1d, inhibitor 30 min then 2 µM T-GKY25 1 h, n = 3-4
0.5% whole blood = details: ref [5], [7], [11], [12], [38]; cited from earlier work
[1] = ref [11]; cited from earlier work

With `CN(C)c1cccc2c(S(=O)(=O)NCCCCCN)cccc12` [dansylcadaverine, Dansylcadaverine] the “effect of inhibitor on uptake of T-GKY25” value (RAW264.7 cells) was “did not show any effect”.
In the case of `CC[C@H](C)[C@H](NC(=O)[C@H](Cc1c[nH]c2ccccc12)NC(=O)[C@H](CCCCN)NC(=O)[C@H](CCCCN)NC(=O)[C@H](CC(C)C)NC(=O)[C@H](CCCNC(=N)N)NC(=O)[C@H](Cc1ccccc1)NC(=O)[C@@H](NC(=O)[C@@H](N)Cc1cnc[nH]1)C(C)C)C(=O)N[C@@H](CCC(N)=O)C(=O)N[C@@H](CCCCN)C(=O)N[C@H](C(=O)N[C@H](C(=O)N[C@@H](CC(=O)O)C(=O)N[C@@H](CCC(N)=O)C(=O)N[C@@H](Cc1ccccc1)C(=O)NCC(=O)N[C@@H](CCC(=O)O)C(=O)O)[C@@H](C)CC)C(C)C` [HVF18] (H-HVFRLKKWIQKVIDQFGE-OH), the “concentration from which hemolysis is induced” value (0.5% whole blood) is listed as over 80 µM.
For WFFFYYLIIGGGVVTHQQRKKKKDE [WFF25], the immunomodulatory effects [1] is listed as “did not show any immunomodulatory effects”.
